# Laboratory results taken from PubChem BioAssay AID1963444 (Molecular Pharmacology Branch, DTP, NCI, 2024).
# Tested on: HSSY-II complex spheroid growth, percent test/control
# Test: Anticancer human tumor HSSY-II cell line growth inhibition [Asc];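 also: spheroids exposed to drug for 7 days before reading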
# Details: for IC50: curve of first compound; for viability, T/C: stronger effect = lower value
# Summary of the method: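 Concentration series start at each agent's clinical Cmax, or at 10 microM when none is established, and drop in half-log steps; agents are applied alone or together to complex spheroids built with HUVEC and hMSC.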
compound,measurement,setting,value
Cc1nc(N2CCC3(CC2)COC(C)C3N)c(CO)nc1Sc1ccnc(N)c1Cl (centres undefined) + CCN1C(C(=O)NC23CCC(C(=O)O)(CC2)CC3)C(c2cccc(Cl)c2F)C2(C(=O)Nc3cc(Cl)ccc32)C12CCCCC2,IC50,second compound 0.03 µM,> 3 µM
same,IC50,second compound 0.0949 µM,0.612 µM
same,IC50,second compound 0.3 µM,< 0.00949 µM
same,IC50,second compound 0.949 µM,< 0.00949 µM
same,IC50,second compound 3 µM,< 0.00949 µM
same,"viability, T/C","second compound 0.03 µM, first compound 0.00949 µM",105%
same,"viability, T/C","second compound 0.03 µM, first compound 0.03 µM",97.6%
same,"viability, T/C","second compound 0.03 µM, first compound 0.0949 µM",100%
same,"viability, T/C","second compound 0.03 µM, first compound 0.3 µM",93.2%
same,"viability, T/C","second compound 0.03 µM, first compound 0.949 µM",88.8%
same,"viability, T/C","second compound 0.03 µM, first compound 3 µM",59.8%
same,"viability, T/C","second compound 0.0949 µM, first compound 0.00949 µM",64%
same,"viability, T/C","second compound 0.0949 µM, first compound 0.03 µM",59.3%
same,"viability, T/C","second compound 0.0949 µM, first compound 0.0949 µM",57.6%
same,"viability, T/C","second compound 0.0949 µM, first compound 0.3 µM",58.7%
same,"viability, T/C","second compound 0.0949 µM, first compound 0.949 µM",44.3%
same,"viability, T/C","second compound 0.0949 µM, first compound 3 µM",36.6%
same,"viability, T/C","second compound 0.3 µM, first compound 0.00949 µM",23.8%
same,"viability, T/C","second compound 0.3 µM, first compound 0.03 µM",22.2%
same,"viability, T/C","second compound 0.3 µM, first compound 0.0949 µM",23.4%
same,"viability, T/C","second compound 0.3 µM, first compound 0.3 µM",23.2%
same,"viability, T/C","second compound 0.3 µM, first compound 0.949 µM",14.6%
same,"viability, T/C","second compound 0.3 µM, first compound 3 µM",18.5%
same,"viability, T/C","second compound 0.949 µM, first compound 0.00949 µM",7.31%
same,"viability, T/C","second compound 0.949 µM, first compound 0.03 µM",6.01%
same,"viability, T/C","second compound 0.949 µM, first compound 0.0949 µM",4.66%
same,"viability, T/C","second compound 0.949 µM, first compound 0.3 µM",3.37%
same,"viability, T/C","second compound 0.949 µM, first compound 0.949 µM",2.01%
same,"viability, T/C","second compound 0.949 µM, first compound 3 µM",2.02%
same,"viability, T/C","second compound 3 µM, first compound 0.00949 µM",1.65%
same,"viability, T/C","second compound 3 µM, first compound 0.03 µM",1.25%
same,"viability, T/C","second compound 3 µM, first compound 0.0949 µM",0.81%
same,"viability, T/C","second compound 3 µM, first compound 0.3 µM",0.41%
same,"viability, T/C","second compound 3 µM, first compound 0.949 µM",0.35%
same,"viability, T/C","second compound 3 µM, first compound 3 µM",0.42%
C#Cc1c(F)ccc2cc(O)cc(-c3ncc4c(N5CC6CCC(C5)N6)nc(OCC56CCCN5CC(F)C6)nc4c3F)c12 (centres undefined) + CNC(C)C(=O)NC1CN(S(=O)(=O)c2cccc(S(=O)(=O)N3CCC4CCC(C(=O)NC(c5ccccc5)c5ccccc5)N4C(=O)C(NC(=O)C(C)NC)C3)c2)CCC2CCC(C(=O)NC(c3ccccc3)c3ccccc3)N2C1=O,IC50,second compound 0.00316 µM,> 10 µM
same,IC50,second compound 0.01 µM,6.97 µM
same,IC50,second compound 0.0316 µM,8.98 µM
same,IC50,second compound 0.1 µM,> 10 µM
same,IC50,second compound 0.316 µM,9.6 µM
same,IC50,second compound 1 µM,7.49 µM
same,"viability, T/C","second compound 0.00316 µM, first compound 0.0316 µM",97.9%
same,"viability, T/C","second compound 0.00316 µM, first compound 0.1 µM",92.2%
same,"viability, T/C","second compound 0.00316 µM, first compound 0.316 µM",92.2%
same,"viability, T/C","second compound 0.00316 µM, first compound 1 µM",109%
same,"viability, T/C","second compound 0.00316 µM, first compound 3.16 µM",96.7%
same,"viability, T/C","second compound 0.00316 µM, first compound 10 µM",62.2%
same,"viability, T/C","second compound 0.01 µM, first compound 0.0316 µM",100%
same,"viability, T/C","second compound 0.01 µM, first compound 0.1 µM",88%
same,"viability, T/C","second compound 0.01 µM, first compound 0.316 µM",94%
same,"viability, T/C","second compound 0.01 µM, first compound 1 µM",98.1%
same,"viability, T/C","second compound 0.01 µM, first compound 3.16 µM",88.8%
same,"viability, T/C","second compound 0.01 µM, first compound 10 µM",32%
same,"viability, T/C","second compound 0.0316 µM, first compound 0.0316 µM",100%
same,"viability, T/C","second compound 0.0316 µM, first compound 0.1 µM",96.3%
same,"viability, T/C","second compound 0.0316 µM, first compound 0.316 µM",95.2%
same,"viability, T/C","second compound 0.0316 µM, first compound 1 µM",94.3%
same,"viability, T/C","second compound 0.0316 µM, first compound 3.16 µM",94.2%
same,"viability, T/C","second compound 0.0316 µM, first compound 10 µM",45.4%
same,"viability, T/C","second compound 0.1 µM, first compound 0.0316 µM",100%
same,"viability, T/C","second compound 0.1 µM, first compound 0.1 µM",91.7%
same,"viability, T/C","second compound 0.1 µM, first compound 0.316 µM",93.6%
same,"viability, T/C","second compound 0.1 µM, first compound 1 µM",88.5%
same,"viability, T/C","second compound 0.1 µM, first compound 3.16 µM",85.1%
same,"viability, T/C","second compound 0.1 µM, first compound 10 µM",63%
same,"viability, T/C","second compound 0.316 µM, first compound 0.0316 µM",102%
same,"viability, T/C","second compound 0.316 µM, first compound 0.1 µM",93.9%
same,"viability, T/C","second compound 0.316 µM, first compound 0.316 µM",88.5%
same,"viability, T/C","second compound 0.316 µM, first compound 1 µM",91.2%
same,"viability, T/C","second compound 0.316 µM, first compound 3.16 µM",84.9%
same,"viability, T/C","second compound 0.316 µM, first compound 10 µM",48.1%
same,"viability, T/C","second compound 1 µM, first compound 0.0316 µM",91.9%
same,"viability, T/C","second compound 1 µM, first compound 0.1 µM",90.8%
same,"viability, T/C","second compound 1 µM, first compound 0.316 µM",96.2%
same,"viability, T/C","second compound 1 µM, first compound 1 µM",86.1%
same,"viability, T/C","second compound 1 µM, first compound 3.16 µM",86.6%
same,"viability, T/C","second compound 1 µM, first compound 10 µM",37.5%
Cc1nc(N2CCC3(CC2)COC(C)C3N)c(CO)nc1Sc1ccnc(N)c1Cl (centres undefined) + CNC(C)C(=O)NC1CN(S(=O)(=O)c2cccc(S(=O)(=O)N3CCC4CCC(C(=O)NC(c5ccccc5)c5ccccc5)N4C(=O)C(NC(=O)C(C)NC)C3)c2)CCC2CCC(C(=O)NC(c3ccccc3)c3ccccc3)N2C1=O,IC50,second compound 0.00316 µM,> 3 µM
same,IC50,second compound 0.01 µM,> 3 µM
same,IC50,second compound 0.0316 µM,> 3 µM
same,IC50,second compound 0.1 µM,> 3 µM
same,IC50,second compound 0.316 µM,> 3 µM
same,IC50,second compound 1 µM,> 3 µM
same,"viability, T/C","second compound 0.00316 µM, first compound 0.00949 µM",104%
same,"viability, T/C","second compound 0.00316 µM, first compound 0.03 µM",102%
same,"viability, T/C","second compound 0.00316 µM, first compound 0.0949 µM",90.9%
same,"viability, T/C","second compound 0.00316 µM, first compound 0.3 µM",92.6%
same,"viability, T/C","second compound 0.00316 µM, first compound 0.949 µM",90.7%
same,"viability, T/C","second compound 0.00316 µM, first compound 3 µM",69.1%
same,"viability, T/C","second compound 0.01 µM, first compound 0.00949 µM",105%
same,"viability, T/C","second compound 0.01 µM, first compound 0.03 µM",97.2%
same,"viability, T/C","second compound 0.01 µM, first compound 0.0949 µM",90.8%
same,"viability, T/C","second compound 0.01 µM, first compound 0.3 µM",93.7%
same,"viability, T/C","second compound 0.01 µM, first compound 0.949 µM",88.1%
same,"viability, T/C","second compound 0.01 µM, first compound 3 µM",66.9%
same,"viability, T/C","second compound 0.0316 µM, first compound 0.00949 µM",101%
same,"viability, T/C","second compound 0.0316 µM, first compound 0.03 µM",91.2%
same,"viability, T/C","second compound 0.0316 µM, first compound 0.0949 µM",95.4%
same,"viability, T/C","second compound 0.0316 µM, first compound 0.3 µM",85.8%
same,"viability, T/C","second compound 0.0316 µM, first compound 0.949 µM",90.7%
same,"viability, T/C","second compound 0.0316 µM, first compound 3 µM",74.9%
same,"viability, T/C","second compound 0.1 µM, first compound 0.00949 µM",96.9%
same,"viability, T/C","second compound 0.1 µM, first compound 0.03 µM",96.4%
same,"viability, T/C","second compound 0.1 µM, first compound 0.0949 µM",97.5%
same,"viability, T/C","second compound 0.1 µM, first compound 0.3 µM",95.6%
same,"viability, T/C","second compound 0.1 µM, first compound 0.949 µM",84.3%
same,"viability, T/C","second compound 0.1 µM, first compound 3 µM",70.8%
same,"viability, T/C","second compound 0.316 µM, first compound 0.00949 µM",93.5%
same,"viability, T/C","second compound 0.316 µM, first compound 0.03 µM",94.2%
same,"viability, T/C","second compound 0.316 µM, first compound 0.0949 µM",90.2%
same,"viability, T/C","second compound 0.316 µM, first compound 0.3 µM",85.4%
same,"viability, T/C","second compound 0.316 µM, first compound 0.949 µM",78.7%
same,"viability, T/C","second compound 0.316 µM, first compound 3 µM",72.5%
same,"viability, T/C","second compound 1 µM, first compound 0.00949 µM",97.5%
same,"viability, T/C","second compound 1 µM, first compound 0.03 µM",92.8%
same,"viability, T/C","second compound 1 µM, first compound 0.0949 µM",92.7%
same,"viability, T/C","second compound 1 µM, first compound 0.3 µM",84.7%
same,"viability, T/C","second compound 1 µM, first compound 0.949 µM",87.6%
same,"viability, T/C","second compound 1 µM, first compound 3 µM",76%
